Assay: Sensory evaluation of mayonnaise containing the agent
Conditions: ten panels
Protocol: Sensory evaluation of each drink was carried out by ten panels. […] The piercing aroma characteristic to aldehydes is a characteristic aroma common to every aldehyde and refers to an irritant off-smell giving an image of deteriorated oils and fats, soap, metals, Houttuynia cordata, etc. The judgment of smell was performed by comparing the effects at different concentrations of the acid taste and/or acid smell-reducing agent, and a concentration giving the highest acid taste/acid smell quality was selected.
A mayonnaise base material (100 g) was prepared by mixing 12 g of edible vinegar, 75 g of vegetable oils and fats, and 13 g of an aqueous solution containing egg yolk and spices. To the resulting mixture was added (Z,Z)-4,7-tridecadienal as the acid taste and/or acid smell-reducing agent of the present invention in concentrations shown in the following Table 11 to give mayonnaise containing the agent, followed by sensory evaluation as in Example 1.

In the case of `CCCCC/C=C\C/C=C\CCC=O` [(Z,Z)-4,7-tridecadienal], the “A: number of panels, acid taste/acid smell extreme and cause irritation” value (0.005 ppt) is reported as 10, the “B: number of panels, acid taste/acid smell slightly strong and slightly cause irritation” value (0.005 ppt) is reported as 0 and the “C: number of panels, acid taste/acid smell slightly unpleasant” value (0.005 ppt) is reported as 0. For the same compound, the “Flavor judgment: number of panels who judged acid taste/acid smell quality the highest” value (0.005 ppt) was 0, the “N: number of panels, irritation of acid reduced to give a mild acid taste” value (0.005 ppt) was 0 and the “X: number of panels, acid taste reduced but piercing odor characteristic to aldehydes unpleasant” value (0.005 ppt) was 0. For the same compound, the “A: number of panels, acid taste/acid smell extreme and cause irritation” value (0.02 ppt) was 8, the “B: number of panels, acid taste/acid smell slightly strong and slightly cause irritation” value (0.02 ppt) was 2 and the “C: number of panels, acid taste/acid smell slightly unpleasant” value (0.02 ppt) was 0. The “Flavor judgment: number of panels who judged acid taste/acid smell quality the highest” value (0.02 ppt) was 0, the “N: number of panels, irritation of acid reduced to give a mild acid taste” value (0.02 ppt) was 0 and the “X: number of panels, acid taste reduced but piercing odor characteristic to aldehydes unpleasant” value (0.02 ppt) was 0. The “A: number of panels, acid taste/acid smell extreme and cause irritation” value (0.1 ppt) was 7, the “B: number of panels, acid taste/acid smell slightly strong and slightly cause irritation” value (0.1 ppt) was 2 and the “C: number of panels, acid taste/acid smell slightly unpleasant” value (0.1 ppt) was 1. The “Flavor judgment: number of panels who judged acid taste/acid smell quality the highest” value (0.1 ppt) was 0, the “N: number of panels, irritation of acid reduced to give a mild acid taste” value (0.1 ppt) was 0 and the “X: number of panels, acid taste reduced but piercing odor characteristic to aldehydes unpleasant” value (0.1 ppt) was 0. The “A: number of panels, acid taste/acid smell extreme and cause irritation” value (0.2 ppt) was 3, the “B: number of panels, acid taste/acid smell slightly strong and slightly cause irritation” value (0.2 ppt) was 4 and the “C: number of panels, acid taste/acid smell slightly unpleasant” value (0.2 ppt) was 3. For the same compound, the “Flavor judgment: number of panels who judged acid taste/acid smell quality the highest” value (0.2 ppt) was 0, the “N: number of panels, irritation of acid reduced to give a mild acid taste” value (0.2 ppt) was 0 and the “X: number of panels, acid taste reduced but piercing odor characteristic to aldehydes unpleasant” value (0.2 ppt) was 0. The “A: number of panels, acid taste/acid smell extreme and cause irritation” value (0.5 ppt) was 0, the “B: number of panels, acid taste/acid smell slightly strong and slightly cause irritation” value (0.5 ppt) was 2 and the “C: number of panels, acid taste/acid smell slightly unpleasant” value (0.5 ppt) was 3. The “Flavor judgment: number of panels who judged acid taste/acid smell quality the highest” value (0.5 ppt) was 1, the “N: number of panels, irritation of acid reduced to give a mild acid taste” value (0.5 ppt) was 5 and the “X: number of panels, acid taste reduced but piercing odor characteristic to aldehydes unpleasant” value (0.5 ppt) was 0. The “A: number of panels, acid taste/acid smell extreme and cause irritation” value (1 ppb) was 0, the “B: number of panels, acid taste/acid smell slightly strong and slightly cause irritation” value (1 ppb) was 0 and the “C: number of panels, acid taste/acid smell slightly unpleasant” value (1 ppb) was 2. For the same compound, the “Flavor judgment: number of panels who judged acid taste/acid smell quality the highest” value (1 ppb) was 0, the “N: number of panels, irritation of acid reduced to give a mild acid taste” value (1 ppb) was 4 and the “X: number of panels, acid taste reduced but piercing odor characteristic to aldehydes unpleasant” value (1 ppb) was 4. The “A: number of panels, acid taste/acid smell extreme and cause irritation” value (1 ppt) was 0, the “B: number of panels, acid taste/acid smell slightly strong and slightly cause irritation” value (1 ppt) was 2 and the “C: number of panels, acid taste/acid smell slightly unpleasant” value (1 ppt) was 2. The “Flavor judgment: number of panels who judged acid taste/acid smell quality the highest” value (1 ppt) was 1, the “N: number of panels, irritation of acid reduced to give a mild acid taste” value (1 ppt) was 6 and the “X: number of panels, acid taste reduced but piercing odor characteristic to aldehydes unpleasant” value (1 ppt) was 0. For the same compound, the “A: number of panels, acid taste/acid smell extreme and cause irritation” value (5 ppt) was 0, the “B: number of panels, acid taste/acid smell slightly strong and slightly cause irritation” value (5 ppt) was 0 and the “C: number of panels, acid taste/acid smell slightly unpleasant” value (5 ppt) was 2. The “Flavor judgment: number of panels who judged acid taste/acid smell quality the highest” value (5 ppt) was 4, the “N: number of panels, irritation of acid reduced to give a mild acid taste” value (5 ppt) was 8 and the “X: number of panels, acid taste reduced but piercing odor characteristic to aldehydes unpleasant” value (5 ppt) was 0. For the same compound, the “A: number of panels, acid taste/acid smell extreme and cause irritation” value (10 ppb) was 0, the “B: number of panels, acid taste/acid smell slightly strong and slightly cause irritation” value (10 ppb) was 0 and the “C: number of panels, acid taste/acid smell slightly unpleasant” value (10 ppb) was 1. The “Flavor judgment: number of panels who judged acid taste/acid smell quality the highest” value (10 ppb) was 0, the “N: number of panels, irritation of acid reduced to give a mild acid taste” value (10 ppb) was 2 and the “X: number of panels, acid taste reduced but piercing odor characteristic to aldehydes unpleasant” value (10 ppb) was 7. For the same compound, the “A: number of panels, acid taste/acid smell extreme and cause irritation” value (20 ppt) was 0, the “B: number of panels, acid taste/acid smell slightly strong and slightly cause irritation” value (20 ppt) was 0 and the “C: number of panels, acid taste/acid smell slightly unpleasant” value (20 ppt) was 3. For the same compound, the “Flavor judgment: number of panels who judged acid taste/acid smell quality the highest” value (20 ppt) was 4, the “N: number of panels, irritation of acid reduced to give a mild acid taste” value (20 ppt) was 7 and the “X: number of panels, acid taste reduced but piercing odor characteristic to aldehydes unpleasant” value (20 ppt) was 0. The “A: number of panels, acid taste/acid smell extreme and cause irritation” value (50 ppb) was 0, the “B: number of panels, acid taste/acid smell slightly strong and slightly cause irritation” value (50 ppb) was 0 and the “C: number of panels, acid taste/acid smell slightly unpleasant” value (50 ppb) was 1. The “Flavor judgment: number of panels who judged acid taste/acid smell quality the highest” value (50 ppb) was 0, the “N: number of panels, irritation of acid reduced to give a mild acid taste” value (50 ppb) was 1 and the “X: number of panels, acid taste reduced but piercing odor characteristic to aldehydes unpleasant” value (50 ppb) was 8. The “A: number of panels, acid taste/acid smell extreme and cause irritation” value (100 ppt) was 0, the “B: number of panels, acid taste/acid smell slightly strong and slightly cause irritation” value (100 ppt) was 1 and the “C: number of panels, acid taste/acid smell slightly unpleasant” value (100 ppt) was 4. The “Flavor judgment: number of panels who judged acid taste/acid smell quality the highest” value (100 ppt) was 0, the “N: number of panels, irritation of acid reduced to give a mild acid taste” value (100 ppt) was 4 and the “X: number of panels, acid taste reduced but piercing odor characteristic to aldehydes unpleasant” value (100 ppt) was 1. For the same compound, the “A: number of panels, acid taste/acid smell extreme and cause irritation” value (500 ppt) was 0, the “B: number of panels, acid taste/acid smell slightly strong and slightly cause irritation” value (500 ppt) was 0 and the “C: number of panels, acid taste/acid smell slightly unpleasant” value (500 ppt) was 4. For the same compound, the “Flavor judgment: number of panels who judged acid taste/acid smell quality the highest” value (500 ppt) was 0, the “N: number of panels, irritation of acid reduced to give a mild acid taste” value (500 ppt) was 4 and the “X: number of panels, acid taste reduced but piercing odor characteristic to aldehydes unpleasant” value (500 ppt) was 2.

— patent publication US20140120232A1, “ACID TASTE/ACID SMELL-REDUCING AGENT” (T. HASEGAWA CO., LTD., priority 2011, published 2014)
